Laboratory results from US20070281938A1, “Inhibitors of 11-Beta-Hydroxy Steroid Dehydrogenase Type 1” (Amgen Inc., priority 2004, published 2007).

These compounds were tested against T1, human 11-β-hydroxysteroid dehydrogenase type-1 enzyme (11-β-HSD1) (Homo sapiens, UniProt P28845) (assay: Scintillation Proximity Assay, 11-β-HSD1 enzyme assay (Ki)). Conditions: human 11-β-HSD1 expressed in Pichia pastoris; Ki calculated from IC50 (Cheng-Prusoff).
T1 construct: made in house; host or cells: Pichia pastoris (cell homogenate or microsomes)
T1 sequence (P28845 whole entry): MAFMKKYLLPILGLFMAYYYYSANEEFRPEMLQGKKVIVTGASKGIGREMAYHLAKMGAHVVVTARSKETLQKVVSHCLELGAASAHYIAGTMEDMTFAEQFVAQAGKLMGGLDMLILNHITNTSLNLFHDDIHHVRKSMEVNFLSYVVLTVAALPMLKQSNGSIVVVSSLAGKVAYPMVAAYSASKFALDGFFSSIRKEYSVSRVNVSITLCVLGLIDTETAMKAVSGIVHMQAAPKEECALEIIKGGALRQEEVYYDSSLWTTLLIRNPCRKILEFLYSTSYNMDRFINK
Type: biochemical
Excerpt: [1,2(n)—^3H]-cortisone was purchased from Amersham Pharmacia Biotech. Anti-cortisol monoclonal mouse antibody, clone 6D6.7 was obtained from Immunotech and Scintillation proximity assay (SPA) beads coated with monoclonal antimouse antibodies were from Amersham Pharmacia Biotech. NADPH, tetrasodium salt was from Calbiochem and glucose-6-phosphate (G-6-P) was supplied by Sigma. The human 11-β-hydroxysteroid dehydrogenase type-1 enzyme (11-β-HSD1) was expressed in Pichiapastoris. 18-β-glycyrrhetinic acid (GA) was obtained from Sigma. The serial dilutions of the compounds were performed on a Tecan Genesis RSP 150. Compounds to be tested were dissolved in DMSO (1 mM) and diluted in 50 mM Tris-HCl, pH 7.2 containing 1 mM EDTA.
The multiplication of plates was done on a WallacQuadra. The amount of the product [^3H]-cortisol, bound to the beads was determined in a Packard, Top Count microplate liquid scintillation counter.
The 11-β-HSD1 enzyme assay was carried out in 96 well microtiter plates (Packard, Optiplate) in a total well volume of 220 μL and contained 30 mM Tris-HCl, pH 7.2 with 1 mM EDTA, a substrate mixture tritiated Cortisone/NADPH (175 nM/181 μM), G-6-P (1 mM) and inhibitors in serial dilutions (9 to 0.15 μM). […]
The plates were covered with plastic film and incubated on a shaker for 30 minutes, at room temperature, before counting. The amount of [^3H]-cortisol, bound to the beads was determined in a microplate liquid scintillation counter. […] The Ki value is calculated from IC50 and the Km value is calculated using the Cheng Prushoff equation (with reversible inhibition that follows the Michaelis-Menten equation): […] [Cheng, Y. C.; Prushoff, W. H. Biochem. Pharmacol. 1973, 22, 3099-3108]. The IC50 is measured experimentally in an assay wherein the decrease of the turnover of cortisone to cortisol is dependent on the inhibition potential of each substance. […]

Question: Which Ki does the source give for `CC(C)C1SC(NC2(c3ccc(Cl)cc3)CCC2)=NC1=O` (stereo not drawn) [Example 48, 2-{[1-(4-Chlorophenyl)cyclobutyl]amino}-5-isopropyl-1,3-thiazol-4(5H)-one] here?
Answer: 174 nM

Question: Which Ki does the source give for `O=C1N=C(NC2CCCCCC2)SC12CCC2` [Example 10, 6-(Cycloheptylamino)-5-thia-7-azaspiro[3.4]oct-6-en-8-one] here?
Answer: 250 nM

Question: For `CC1(C)SC(NCC2CCCCC2)=NC1=O` [Example 14, 2-[(cyclohexylmethyl)amino]-5,5-dimethyl-1,3-thiazol-4(5H)-one], which Ki is on record?
Answer: 107 nM
